Patent US20030187007A1, “Inhibitors of protein kinase for the treatment of disease” (priority 2001, published 2003)
Structures can show the parent of a compound that is named as a salt.

Key:
Type in all cases: biochemical
[1] = target: CDK5 complexed with p25 (Homo sapiens, UniProt Q00535); assay: Cyclin dependent kinase activity assay, phosphorylation of synthetic peptide PKTPKKAKKLRRR; conditions: CDK5 complexed with p25, 0.1 mM ATP; read-out: CDK 5 Activity*
Description: (§1) The assay of cyclin dependent kinase activity was determined by monitoring the phosphorylation of a synthetic peptide, PKTPKKAKKLRRR. The assay mixture contained 0.1 mM cold ATP, ^33P-γ-ATP (2000-4000 cpm/μL), 0.1 mM peptide, 1 mM DTT, and 10 mM MgCl2 in 100 mM HEPES buffer pH 7.4. The assay mixture, along with inhibitor and CDK enzyme (0.3-0.4 U/mL; either CDK5 complexed with p25, CDK2 complexed with complexed with cyclin A), was mixed together in a microtiter plate in a final volume of 40 μL, sealed and incubated for 2 hours at 30° C. Following incubation, a 15 μL aliquot was added to a Whatman P81 filtration plate containing 100 μL 0.5% phosphoric acid. This mixture was allowed to stand for 5 minutes prior to filtration on a vacuum manifold. The filter plate was washed with 5 successive additions of 300 μL 0.5% phosphoric acid. The filtration plate was air dried for 10 minutes before sealing the bottom. After addition of scintillation fluid to the sealed plate, phosphorylated peptide was quantified in a scintillation counter.

[2] = target: CDK2 complexed with cyclin A (Homo sapiens, UniProt P24941); assay: as above; conditions: 0.1 mM ATP, read-out: CDK 2 Activity*
Description: as §1

[3] = target: KDR (Homo sapiens, UniProt P35968); assay: Enzyme assay for  (KDR), IC50 determination; conditions: 50 nM KDR, 500 μM ATP
Description: Enzyme assays for IC50 determinations were performed in 96-well titer plates, in a total reaction volume of 50 μL. Each reaction contained 1.5 μL of appropriate dilutions of inhibitor, 50 mM Hepes, pH 7.4, 1 mM DTT, 10 mM magnesium chloride, 2 mM phospho-poly(E4Y) (Sigma Chemical Company), 500 μM unlabeled ATP, 0.0025 μM [^33P]ATP (Amersham Pharmacia Biotech), and 50 nM KDR. All components except KDR were added to the wells, and the reaction was started by the addition of the enzyme. The reactions were mixed and incubated at room temperature for 1 hr, after which the reactions were quenched by the addition of 50 μL of 8% phosphoric acid. At this point, 90 μL aliquots of the samples were applied to positively charged DEAE 96-well filter plates (Millipore Corporation MADENOB10). The plates were incubated for 30 min at room temperature. The samples were aspirated and the wells were washed 3 times with 200 μL of 0.5% phosphoric acid. To each well, 50 μL of scintillation cocktail was added and counted for 60 sec in a TopCount microplate scintillation counter (Packard Instrument Company). The concentration of a compound that inhibited the activity of KDR by 50% (IC50) was determined based its inhibition curve.

CDK5 complexed with p25, sequence (Q00535 whole entry): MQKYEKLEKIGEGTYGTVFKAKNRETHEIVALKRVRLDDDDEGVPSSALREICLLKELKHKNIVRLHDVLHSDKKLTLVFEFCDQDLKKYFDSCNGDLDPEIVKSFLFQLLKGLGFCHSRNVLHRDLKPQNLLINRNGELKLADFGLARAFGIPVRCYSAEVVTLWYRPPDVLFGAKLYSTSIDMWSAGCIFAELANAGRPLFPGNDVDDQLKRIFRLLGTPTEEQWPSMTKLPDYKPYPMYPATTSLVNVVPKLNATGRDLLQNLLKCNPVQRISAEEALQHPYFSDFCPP
CDK5 complexed with p25, sequence (Q15078 99-307 partner limits assumed): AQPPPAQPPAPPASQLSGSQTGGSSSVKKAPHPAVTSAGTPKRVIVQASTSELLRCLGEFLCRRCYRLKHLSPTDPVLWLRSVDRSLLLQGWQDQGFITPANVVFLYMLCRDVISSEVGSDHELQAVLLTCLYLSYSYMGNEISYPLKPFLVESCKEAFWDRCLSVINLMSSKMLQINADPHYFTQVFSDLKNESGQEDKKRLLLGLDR
KDR, sequence (P35968 20-1356): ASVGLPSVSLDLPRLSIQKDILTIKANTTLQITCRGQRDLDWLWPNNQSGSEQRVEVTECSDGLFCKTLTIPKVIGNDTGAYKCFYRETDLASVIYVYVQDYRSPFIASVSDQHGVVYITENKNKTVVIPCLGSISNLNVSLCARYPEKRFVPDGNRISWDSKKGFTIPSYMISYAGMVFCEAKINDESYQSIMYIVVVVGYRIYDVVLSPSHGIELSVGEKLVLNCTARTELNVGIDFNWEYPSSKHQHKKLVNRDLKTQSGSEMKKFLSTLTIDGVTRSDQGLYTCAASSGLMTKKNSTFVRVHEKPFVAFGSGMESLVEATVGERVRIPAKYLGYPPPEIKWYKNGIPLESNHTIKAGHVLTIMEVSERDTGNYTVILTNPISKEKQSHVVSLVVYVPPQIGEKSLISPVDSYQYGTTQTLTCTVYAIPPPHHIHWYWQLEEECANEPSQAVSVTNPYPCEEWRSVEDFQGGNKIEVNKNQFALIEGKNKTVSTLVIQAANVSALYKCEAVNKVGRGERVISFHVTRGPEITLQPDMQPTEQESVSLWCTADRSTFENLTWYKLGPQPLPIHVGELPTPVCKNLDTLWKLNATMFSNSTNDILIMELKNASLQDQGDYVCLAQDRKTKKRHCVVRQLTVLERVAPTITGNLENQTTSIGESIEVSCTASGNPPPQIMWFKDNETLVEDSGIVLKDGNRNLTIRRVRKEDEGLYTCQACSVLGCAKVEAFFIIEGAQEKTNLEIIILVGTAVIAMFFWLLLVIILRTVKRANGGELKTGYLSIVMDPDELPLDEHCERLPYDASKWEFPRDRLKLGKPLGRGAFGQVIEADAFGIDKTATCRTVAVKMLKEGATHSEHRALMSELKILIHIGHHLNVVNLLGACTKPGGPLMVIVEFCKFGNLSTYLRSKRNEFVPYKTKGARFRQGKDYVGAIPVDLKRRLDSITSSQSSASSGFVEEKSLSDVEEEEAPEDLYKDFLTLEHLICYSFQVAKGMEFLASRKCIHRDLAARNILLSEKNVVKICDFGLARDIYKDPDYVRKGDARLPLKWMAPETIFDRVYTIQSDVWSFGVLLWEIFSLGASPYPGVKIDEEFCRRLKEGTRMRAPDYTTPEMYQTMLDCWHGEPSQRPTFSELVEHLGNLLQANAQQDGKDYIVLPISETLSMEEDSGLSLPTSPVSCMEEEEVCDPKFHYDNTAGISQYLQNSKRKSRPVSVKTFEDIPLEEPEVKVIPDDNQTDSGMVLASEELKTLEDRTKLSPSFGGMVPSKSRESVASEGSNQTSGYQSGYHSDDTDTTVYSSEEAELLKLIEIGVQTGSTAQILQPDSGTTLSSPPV

SMILES	IC50 [1]	IC50 [2]	IC50 [3]
NC(=S)N/N=C/c1cc(-c2ccc(O)c(F)c2)ccc1O [Example 23, 5-(3-Fluoro-4-hydroxyphenyl)salicylaldehyde thiosemicarbazone]	< 500 nM	< 500 nM	1000 to 20000 nM
Nc1cc(-c2ccc(O)c(-c3ccnc(N)n3)c2)ccn1 [Example 67, 4-(2-Amino-pyridin-4-yl)-2-(2-amino-pyrimidin-4-yl)-phenol]	–	< 500 nM	< 1000 nM
NC(=S)N/N=C/c1cc(-c2ccc3[nH]ccc3c2)ccc1O [Example 36, 5-(5-Indolyl)salicylaldehyde thiosemicarbazone]	< 500 nM	< 500 nM	20000 to 50000 nM
Nc1nc(N[C@@H](CO)Cc2ccccc2)cc(-c2cc(-c3ccc(O)cc3)ccc2O)n1 [Example 86, 3-[2-Amino-6-(1R-benzyl-2-hydroxy-ethylamino)-pyrimidin-4-yl]-biphenyl-4,4′-diol]	< 500 nM	< 500 nM	1000 to 20000 nM
NC(=O)N/N=C/c1cc(-c2ccc(O)c(F)c2)ccc1O [Example 24, 5-(3-Fluoro-4-hydroxyphenyl)salicylaldehyde semicarbazone hydrochloride]	< 500 nM	< 500 nM	1000 to 20000 nM
Nc1nccc(-c2cc(-c3ccc4[nH]ccc4c3)ccc2O)n1 [Example 60, 2-(2-Amino-pyrimidin-4-yl)-4-(1H-indol-5-yl)-phenol]	< 500 nM	2000 to 5000 nM	< 1000 nM
Nc1nc(-c2cccc(CO)c2)cc(-c2cc(-c3ccc(O)cc3)ccc2O)n1 [Example 84, 3-[2-Amino-6-(3-hydroxymethyl-phenyl)-pyrimidin-4-yl]-biphenyl-4,4′-diol]	< 500 nM	< 500 nM	< 1000 nM
Nc1nccc(-c2cc(-c3ccc(C=O)o3)ccc2O)n1 [Example 59, 5-[3-(2-Amino-pyrimidin-4-yl)-4-hydroxy-phenyl]-furan-2-carbaldehyde]	500 to 2000 nM	500 to 2000 nM	< 1000 nM
NC(=S)N/N=C/c1cc(-c2ccc(O)c(O)c2)ccc1O [Example 25, 5-(3,4-Dihydroxyphenyl)salicylaldehyde thiosemicarbazone]	< 500 nM	< 500 nM	< 1000 nM
Nc1nc(-c2cc(-c3ccc(O)cc3)ccc2O)cc(-c2ccccc2CO)n1 [Example 83, 3-[2-Amino-6-(2-hydroxymethyl-phenyl)-pyrimidin-4-yl-biphenyl-4,4]-diol]	< 500 nM	< 500 nM	< 1000 nM
Nc1nccc(-c2cc(-c3ccc(O)cc3)ccc2O)n1 [Example 57, 3-(2-Amino-pyrimidin-4-yl)-biphenyl-4,4′-diol]	< 500 nM	< 500 nM	< 1000 nM
Nc1nc(-c2cc(-c3ccc(O)cc3)ccc2O)cc(N2CCOCC2)n1 [Example 81, 3-(2-Amino-6-morpholin-4-yl-pyrimidin-4-yl)-biphenyl-4,4′-diol]	< 500 nM	< 500 nM	1000 to 20000 nM
Nc1nc(-c2cc(-c3ccc(O)cc3)ccc2O)cc(N2CCC[C@@H]2CO)n1 [Example 80, 3-[2-Amino-6-(2S-hydroxymethyl-pyrrolidin-1-yl)-pyrimidin-4-yl]-biphenyl-4,4′-diol]	< 500 nM	< 500 nM	1000 to 20000 nM
Nc1nc(N)nc(-c2cc(-c3ccc(O)cc3)ccc2O)n1 [Example 58, 3-(4.6-Diamino-[1,3,5]triazin-2-yl)-biphenyl-4,4′-diol]	< 500 nM	< 500 nM	< 1000 nM
NC(=O)N/N=C/c1cc(-c2ccc(O)cc2)ccc1O [Example 22, 5-(4-Hydroxyphenyl)salicylaldehyde semicarbazone hydrochloride]	< 500 nM	< 500 nM	1000 to 20000 nM
Nc1nc(-c2cc(-c3ccc(O)cc3)ccc2O)cs1 [Example 61, 3-(2-Amino-thiazol-4-yl)-biphenyl-4,4′-diol]	< 500 nM	< 500 nM	1000 to 20000 nM
Nc1nc(-c2ccc(CO)cc2)cc(-c2cc(-c3ccc(O)cc3)ccc2O)n1 [Example 85, 3-[2-Amino-6-(4-hydroxymethyl-phenyl)-pyrimidin-4-yl]-biphenyl-4,4′-diol]	< 500 nM	< 500 nM	< 1000 nM

The remaining lines, values ahead:

IC50 [1]	IC50 [2]	IC50 [3]	SMILES
< 500 nM	< 500 nM	< 1000 nM	Nc1ccc(-c2cc(-c3cc(-c4ccc(O)cc4)ccc3O)nc(N)n2)cc1 [Example 90, 3-[2-Amino-6-(4-amino-phenyl)-pyrimidin-4-yl]-biphenyl-4,4′-diol]
< 500 nM	< 500 nM	1000 to 20000 nM	Nc1nc(-c2ccc([N+](=O)[O-])cc2)cc(-c2cc(-c3ccc(O)cc3)ccc2O)n1 [Example 89, 3-[2-Amino-6-(4-nitro-phenyl)-pyrimidin-4-yl]-biphenyl-4,4′-diol]
< 500 nM	< 500 nM	1000 to 20000 nM	Nc1nc(-c2cccc([N+](=O)[O-])c2)cc(-c2cc(-c3ccc(O)cc3)ccc2O)n1 [Example 88, 3-[2-Amino-6-(3-nitro-phenyl)-pyrimidin-4-yl]-biphenyl-4,4′-diol]
< 500 nM	< 500 nM	1000 to 20000 nM	Nc1nc(N[C@H](CO)Cc2ccccc2)cc(-c2cc(-c3ccc(O)cc3)ccc2O)n1 [Example 87, 3-[2-Amino-6-(1S-benzyl-2-hydroxy-ethylamino)-pyrimidin-4-yl]-biphenyl-4,4′-diol]
–	–	1000 to 20000 nM	Nc1nc(NCCN2CCOCC2)cc(-c2cc(-c3ccc(O)cc3)ccc2O)n1 [Example 105, 3-[2-Amino-6-(2-morpholin-4-yl-ethylamino)-pyrimidin-4-yl]-biphenyl-4,4′-diol]
< 500 nM	< 500 nM	< 1000 nM	Nc1cccc(-c2cc(-c3cc(-c4ccc(O)cc4)ccc3O)nc(N)n2)c1 [Example 91, 3-[2-Amino-6-(3-amino-phenyl)-pyrimidin-4-yl]-biphenyl-4,4′-diol]
–	–	< 1000 nM	Nc1nc(N[C@@H](CO)c2ccccc2)cc(-c2cc(-c3ccc4[nH]ccc4c3)ccc2O)n1 [Example 93, 2-[2-Amino-6-(2-hydroxy-1 R-phenyl-ethylamino)-pyrimidin-4-yl]-4-(1H-indol-5-yl)-phenol]
–	–	1000 to 20000 nM	Nc1nc(N[C@@H](CO)Cc2c[nH]c3ccccc23)cc(-c2cc(-c3ccc(O)cc3)ccc2O)n1 [Example 102, 3-{2-Amino-6-[2-hydroxy-1R-(1 H-indol-3-ylmethyl)-ethylamino]-pyrimidin-4-yl}-biphenyl-4,4′-diol]
–	–	1000 to 20000 nM	CN1CCN(c2cc(-c3cc(-c4ccc(O)cc4)ccc3O)nc(N)n2)CC1 [Example 104, 3-[2-Amino-6-(4-methyl-piperazin-1-yl)-pyrimidin-4-yl]-biphenyl-4.4′-diol]
–	–	< 1000 nM	COc1cccc(Nc2cc(-c3cc(-c4ccc(O)cc4)ccc3O)nc(N)n2)c1 [Example 111, 3-[2-Amino-6-(3-methoxy-phenylamino)-pyrimidin-4-yl]-biphenyl-4,4′-diol]
–	–	< 1000 nM	Nc1nc(N[C@H](CO)c2ccccc2)cc(-c2cc(-c3ccc(O)cc3)ccc2O)n1 [Example 97, 3-[2-Amino-6-(2-hydroxy-1S-phenyl-ethylamino)-pyrimidin-4-yl]-biphenyl-4,4′-diol]
